These results are taken from patent publication US10233191B2, “Fused piperidine amides as modulators of ion channels” (Vertex Pharmaceuticals Incorporated, priority 2013, dated 2019).

A value given as a limit tells only on which side of the number the result lay.

In this assay the target is T1, NaV 1.7 (Homo sapiens, UniProt Q15858).
T1 construct: expressed in transfected cells; host or cells: HEK cells
T1 sequence (Q15858 whole entry): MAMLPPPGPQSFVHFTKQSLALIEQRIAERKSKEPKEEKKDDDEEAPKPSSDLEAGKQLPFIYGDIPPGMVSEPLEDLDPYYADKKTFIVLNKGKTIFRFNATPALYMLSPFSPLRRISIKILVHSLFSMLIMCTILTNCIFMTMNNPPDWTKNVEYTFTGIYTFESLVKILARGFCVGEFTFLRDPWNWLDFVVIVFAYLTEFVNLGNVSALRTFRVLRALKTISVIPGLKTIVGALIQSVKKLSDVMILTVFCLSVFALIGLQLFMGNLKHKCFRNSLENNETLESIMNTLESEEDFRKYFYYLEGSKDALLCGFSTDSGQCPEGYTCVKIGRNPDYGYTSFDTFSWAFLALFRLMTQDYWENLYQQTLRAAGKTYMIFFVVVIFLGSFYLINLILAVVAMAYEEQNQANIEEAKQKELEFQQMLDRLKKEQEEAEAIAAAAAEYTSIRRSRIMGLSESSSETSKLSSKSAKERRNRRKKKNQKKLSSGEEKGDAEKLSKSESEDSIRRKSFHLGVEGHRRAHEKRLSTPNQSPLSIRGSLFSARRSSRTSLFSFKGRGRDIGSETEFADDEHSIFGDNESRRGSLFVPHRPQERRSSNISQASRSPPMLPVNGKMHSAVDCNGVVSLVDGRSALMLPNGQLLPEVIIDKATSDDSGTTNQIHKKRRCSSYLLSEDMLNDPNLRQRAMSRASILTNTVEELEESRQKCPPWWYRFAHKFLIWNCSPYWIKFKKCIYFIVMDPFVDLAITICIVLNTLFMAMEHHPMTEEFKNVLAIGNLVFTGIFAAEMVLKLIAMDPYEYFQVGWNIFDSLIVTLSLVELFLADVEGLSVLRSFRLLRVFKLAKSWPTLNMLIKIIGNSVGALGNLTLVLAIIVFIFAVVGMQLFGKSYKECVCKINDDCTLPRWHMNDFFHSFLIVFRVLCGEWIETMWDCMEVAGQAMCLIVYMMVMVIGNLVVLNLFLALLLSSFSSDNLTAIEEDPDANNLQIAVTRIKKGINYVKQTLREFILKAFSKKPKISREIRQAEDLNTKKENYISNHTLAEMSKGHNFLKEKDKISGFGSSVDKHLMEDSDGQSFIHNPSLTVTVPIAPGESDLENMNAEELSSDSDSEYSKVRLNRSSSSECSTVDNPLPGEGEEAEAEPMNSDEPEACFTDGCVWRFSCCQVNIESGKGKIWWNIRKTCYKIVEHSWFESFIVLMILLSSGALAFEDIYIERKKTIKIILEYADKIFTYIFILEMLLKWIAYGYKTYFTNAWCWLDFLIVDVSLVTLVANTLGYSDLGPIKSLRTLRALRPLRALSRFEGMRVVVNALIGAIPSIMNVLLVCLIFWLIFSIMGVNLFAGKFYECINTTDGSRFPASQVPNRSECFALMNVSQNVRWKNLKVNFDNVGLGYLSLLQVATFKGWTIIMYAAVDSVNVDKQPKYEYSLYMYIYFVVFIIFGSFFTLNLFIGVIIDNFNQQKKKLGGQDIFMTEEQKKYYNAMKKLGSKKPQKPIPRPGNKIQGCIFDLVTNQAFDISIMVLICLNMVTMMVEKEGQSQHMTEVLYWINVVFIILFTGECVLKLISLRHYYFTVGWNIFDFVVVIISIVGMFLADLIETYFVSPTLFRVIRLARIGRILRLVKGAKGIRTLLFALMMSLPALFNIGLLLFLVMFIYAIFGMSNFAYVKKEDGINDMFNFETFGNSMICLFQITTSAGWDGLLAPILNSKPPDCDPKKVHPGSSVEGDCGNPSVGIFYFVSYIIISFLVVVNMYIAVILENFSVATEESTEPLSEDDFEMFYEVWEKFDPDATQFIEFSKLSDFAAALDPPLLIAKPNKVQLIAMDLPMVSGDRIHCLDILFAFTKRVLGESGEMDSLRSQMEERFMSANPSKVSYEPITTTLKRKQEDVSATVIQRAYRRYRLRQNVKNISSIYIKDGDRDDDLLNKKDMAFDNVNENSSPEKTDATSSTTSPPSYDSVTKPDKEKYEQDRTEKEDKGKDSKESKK
Put plainly: E-VIPR optical membrane potential assay with electrical stimulation. Type of assay: cell-based. The note with it: active against one or more sodium channels; assay/subtype not specified in Table 4; read-out: IC50 Binned Activity Data. The text has this:
E-VIPR Optical Membrane Potential Assay Method with Electrical Stimulation
Sodium channels are voltage-dependent proteins that can be activated by inducing membrane voltage changes by applying electric fields. The electrical stimulation instrument and methods of use are described in Ion Channel Assay Methods PCT/US01/21652, herein incorporated by reference and are referred to as E-VIPR. The instrument comprises a microtiter plate handler, an optical system for exciting the coumarin dye while simultaneously recording the coumarin and oxonol emissions, a waveform generator, a current- or voltage-controlled amplifier, and a device for inserting electrodes in well. Under integrated computer control, this instrument passes user-programmed electrical stimulus protocols to cells within the wells of the microtiter plate.
24 hours before the assay on E-VIPR, HEK cells expressing human NaV subtype, like NaV 1.7, are seeded in 384-well poly-lysine coated plates at 15,000-20,000 cells per well. Other subtypes are performed in an analogous mode in a cell line expressing the NaV of interest. HEK cells are grown in media (exact composition is specific to each cell type and NaV subtype) supplemented with 10% FBS (Fetal Bovine Serum, qualified; GibcoBRL #16140-071) and 1% Pen-Strep (Penicillin-Streptomycin; GibcoBRL #15140-122). Cells are grown in vented cap flasks, in 90% humidity and 10% CO2, to 100% confluence. They are usually split by trypsinization 1:10 or 1:20, depending on scheduling needs, and grown for 2-3 days before the next split.
• 100 mg/mL Pluronic F-127 (Sigma #P2443), in dry DMSO • Compound Plates: 384-well round bottom plate, e.g. Corning 384-well Polypropylene Round Bottom #3656 • Cell Plates: 384-well tissue culture treated plate, e.g. Greiner #781091-1B • 10 mM DiSBAC6(3) (Aurora #00-100-010) in dry DMSO • 10 mM CC2-DMPE (Aurora #00-100-008) in dry DMSO • 200 mM ABSC1 in H2O
Bath1 buffer. Glucose 10 mM (1.8 g/L), Magnesium Chloride (Anhydrous), 1 mM (0.095 g/L), Calcium Chloride, 2 mM (0.222 g/L), HEPES 10 mM (2.38 g/L), Potassium Chloride, 4.5 mM (0.335 g/L), Sodium Chloride 160 mM (9.35 g/L).
Hexyl Dye Solution: Bath1 Buffer+0.5% β-cyclodextrin (make this prior to use, Sigma #C4767), 8 μM CC2-DMPE+2.5 μM DiSBAC6(3). To make the solution Add volume of 10% Pluronic F127 stock equal to volumes of CC2-DMPE+DiSBAC6(3). The order of preparation is first mix Pluronic and CC2-DMPE, then add DiSBAC6(3) while vortexing, then add Bath1+β-Cyclodextrin.
1) Pre-spot compounds (in neat DMSO) into compound plates. Vehicle control (neat DMSO), the positive control (20 mM DMSO stock tetracaine, 125 μM final in assay) and test compounds are added to each well at 160× desired final concentration in neat DMSO. Final compound plate volume will be 80 μL (80-fold intermediate dilution from 1 μL DMSO spot; 160-fold final dilution after transfer to cell plate). Final DMSO concentration for all wells in assay is 0.625%.
2) Prepare Hexyl Dye Solution.
3) Prepare cell plates. On the day of the assay, medium is aspirated and cells are washed three times with 100 μL of Bath1 Solution, maintaining 25 μL residual volume in each well.
4) Dispense 25 μL per well of Hexyl Dye Solution into cell plates. Incubate for 20-35 minutes at room temp or ambient conditions.
5) Dispense 80 μL per well of Bath1 into compound plates. Acid Yellow-17 (1 mM) is added and Potassium Chloride can be altered from 4.5 to 20 mM depending on the NaV subtype and assay sensitivity.
6) Wash cell plates three times with 100 μL per well of Bath1, leaving 25 μL of residual volume. Then transfer 25 uL per well from Compound Plates to Cell Plates. Incubate for 20-35 minutes at room temp/ambient condition
7) Read Plate on E-VIPR. Use the current-controlled amplifier to deliver stimulation wave pulses for typically 9 seconds and a scan rate of 400 Hz. A pre-stimulus recording is performed for 0.5 seconds to obtain the un-stimulated intensities baseline. […]
In the case of `Cc1cc(C(=O)N2CC[C@]3(c4cscn4)OCOC3C2)ccc1OCC(C)(C)F` (some centres unmarked) [Compound 52], the IC50 was in the range of 2000 to 5000 nM.
For `Cc1cc(C(=O)N2CC[C@]3(c4ccc(F)cc4)OCOC3C2)ccc1OCC(C)(C)O` (some centres unmarked) [Compound 53], the IC50 is at most 2000 nM.
Next, `O=C(c1ccc2c(c1)OCC(COC(F)(F)F)O2)N1CC[C@@]2(c3ccccc3)OCOC2C1` (some centres unmarked) [Compound 54]: at most 2000 nM; `COc1cc(C(=O)N2CCC3(c4ccccc4)OCC3C2)ccc1OCCOC(F)(F)F` (centres unmarked) [Compound 55]: at most 2000 nM; `Cc1nc(C(=O)N2CCC3(c4ccccc4)OCC3C2)ccc1OC(C)C` (centres unmarked) [Compound 56]: at most 2000 nM.
Turning to `CC(C)(O)c1ccc(C(=O)N2CCC3(c4ccccc4)CC3C2)cc1F` (centres unmarked) [Compound 57], the IC50 was over 5000 nM.
Next, `Cc1cc(C(=O)N2CC[C@@]3(c4ccc(F)cc4)OCOC3C2)ccc1OCC(C)(C)O` (some centres unmarked) [Compound 58]: at most 2000 nM.
Next, `O=C(c1ccc(OCCOC(F)(F)F)c(F)c1)N1CC[C@@]2(c3nccs3)OCOC2C1` (some centres unmarked) [Compound 59]: at most 2000 nM; `COc1nc(C(=O)N2CCC3(c4ccccc4)CC3C2)ccc1OCC(C)(C)O` (centres unmarked) [Compound 60]: at most 2000 nM; `COc1cc(C(=O)N2CC[C@]3(c4ccccn4)OCOC3C2)ccc1OC(C)CC(F)(F)F` (some centres unmarked) [Compound 61]: at most 2000 nM.
The same measure for `O=C(c1ccc(OCCOC(F)(F)F)c(F)c1)N1CC[C@]2(c3nccs3)OCOC2C1` (some centres unmarked) [Compound 62]: 2000 to 5000 nM; for `Cc1cc(C(=O)N2CC[C@@]3(c4nccs4)OCOC3C2)ccc1OCC(F)(F)F` (some centres unmarked) [Compound 63]: at most 2000 nM.
For `COc1cc(C(=O)N2CC[C@@]3(c4ccccn4)COC[C@H]3C2)ccc1OCCOC(F)(F)F` [Compound 64], the IC50 was at most 2000 nM.
As for `COc1cc(C(=O)N2CCC3(c4ccccc4)CC3C2)ccc1OCC1CCCO1` (centres unmarked) [Compound 65], the IC50 was at most 2000 nM.
The same measure for `COc1cc(C(=O)N2CCC3(c4ccccn4)OCCC3C2)ccc1OCCOC(F)(F)F` (centres unmarked) [Compound 66]: at most 2000 nM.
Take `Cc1nc(C(=O)N2CC[C@]3(c4ncccc4Cl)OCOC3C2)ccc1OC(C)C` (some centres unmarked) [Compound 67]: the IC50 is at most 2000 nM.
The same measure for `COc1cc(C(=O)N2CCC3(c4ccccn4)OCOC3C2)ccc1OCCOC(F)(F)F` (centres unmarked) [Compound 68]: at most 2000 nM; for `CC(C)(C)OCCOc1ccc(C(=O)N2CC[C@]3(c4ccccn4)OCOC3C2)cc1Cl` (some centres unmarked) [Compound 69]: at most 2000 nM; for `Cc1cc(C(=O)N2CC[C@]3(c4nccs4)OCOC3C2)ccc1OCC(F)(F)F` (some centres unmarked) [Compound 70]: at most 2000 nM.
Regarding `COc1cc(C(=O)N2CC[C@]3(c4ccccc4)OCOC3C2)ccc1OCC(C)(C)F` (some centres unmarked) [Compound 71], the IC50 is at most 2000 nM.
The same measure for `COc1cc(C(=O)N2CC[C@]3(c4ccccn4)OCO[C@@H]3C2)ccc1OC(C)C(F)(F)F` (some centres unmarked) [Compound 72]: at most 2000 nM; for `Cc1cc(C(=O)N2CC[C@@]3(c4ccccc4)OCOC3C2)ccc1OCC(C)(C)O` (some centres unmarked) [Compound 73]: at most 2000 nM.
Consider `Cc1nc([C@]23CCN(C(=O)c4ccc(OCC(C)(C)F)c(C)c4)CC2OCO3)cs1` (some centres unmarked) [Compound 74], for which the IC50 was at most 2000 nM.
`Cc1cc(C(=O)N2CC[C@]3(c4ccccc4)OCOC3C2)ccc1OCC(C)(C)O` (some centres unmarked) [Compound 75]: the IC50 is at most 2000 nM.
Next, `O=C(c1cccc2cccnc12)N1CC[C@]2(c3ccccc3)OCOC2C1` (some centres unmarked) [Compound 76]: at most 2000 nM.
The same measure for `Cc1cc(C(=O)N2CC[C@]3(c4ccccc4)OCOC3C2)ccc1OC(C)C` (some centres unmarked) [Compound 77]: at most 2000 nM; for `COc1cc(C(=O)N2CC[C@@]3(c4csc(C)n4)OCOC3C2)ccc1OCCOC(F)(F)F` (some centres unmarked) [Compound 78]: at most 2000 nM.
For the compound `Cc1cc(C(=O)N2CCC3(c4ccccc4)CC3C2)ccc1OC(C)C` (centres unmarked) [Compound 79], the IC50 was at most 2000 nM.
The same measure for `Cc1cc(C(=O)N2CC[C@]3(c4cccc(OCC(C)C)n4)OCOC3C2)ccc1OCCOC(F)(F)F` (some centres unmarked) [Compound 80]: at most 2000 nM; for `Cc1cc(C(=O)N2CC[C@@]3(c4ccccc4)OCOC3C2)ccc1OC(C)C` (some centres unmarked) [Compound 81]: 2000 to 5000 nM; for `Cc1cc(C(=O)N2CC[C@@]3(c4nccs4)OCOC3C2)ccc1OCC(C)(C)F` (some centres unmarked) [Compound 82]: at most 2000 nM.
The same measure for `COc1cc(C(=O)N2CCC3(c4ccccc4)CC3C2)ccc1COCC(F)(F)F` (centres unmarked) [Compound 83]: at most 2000 nM; for `O=C(c1ccc(OCC2CC2(F)F)c(C(F)(F)F)c1)N1CC[C@]2(c3ccccn3)OCOC2C1` (some centres unmarked) [Compound 84]: at most 2000 nM; for `COc1cc(C(=O)N2CC[C@]3(c4nccs4)OCOC3C2)ccc1OCCOC(F)(F)F` (some centres unmarked) [Compound 85]: at most 2000 nM.
The same measure for `COc1cc(C(=O)N2CC[C@@]3(c4nccs4)OCOC3C2)ccc1OCCOC(F)(F)F` (some centres unmarked) [Compound 86]: at most 2000 nM; for `CC(C)(C)OCCOc1ccc(C(=O)N2CC[C@]3(c4ncccc4OCCOC(C)(C)C)OCOC3C2)cc1Cl` (some centres unmarked) [Compound 87]: at most 2000 nM; for `COc1nc(C(=O)N2CC[C@]3(c4csc(C)n4)OCOC3C2)ccc1OCCOC(F)(F)F` (some centres unmarked) [Compound 88]: at most 2000 nM.
On to `COc1cccnc1[C@]12CCN(C(=O)c3ccc(OCCOC(F)(F)F)c(C)c3)CC1OCO2` (some centres unmarked) [Compound 89], for which the IC50 was at most 2000 nM.
The same measure for `COc1cc(C(=O)N2CC[C@]3(c4ccccn4)OCOC3C2)ccc1OCC1CC(F)(F)C1` (some centres unmarked) [Compound 90]: at most 2000 nM; for `COc1cc(C(=O)N2CC[C@]3(c4ccccc4)OCOC3C2)ccc1C(C)(C)CO` (some centres unmarked) [Compound 91]: at most 2000 nM.
The same measure for `COc1cc(C(=O)N2CC[C@]3(c4ccccn4)OCOC3C2)ccc1OCCOC(F)(F)F` (some centres unmarked) [Compound 92]: at most 2000 nM.
Next, `COc1cc(C(=O)N2CC[C@]3(c4ncccc4F)OCOC3C2)ccc1OCCOC(F)(F)F` (some centres unmarked) [Compound 93]: at most 2000 nM.
`COc1cccnc1[C@]12CCN(C(=O)c3ccc(OCCOC(F)(F)F)c(Cl)c3)CC1OCO2` (some centres unmarked) [Compound 94]: the IC50 was at most 2000 nM.
The same measure for `Cc1cc(C(=O)N2CC[C@]3(c4ccccn4)OCOC3C2)ccc1OCC(C)(C)F` (some centres unmarked) [Compound 95]: at most 2000 nM.
Next, `COc1nc(C(=O)N2CC[C@]3(c4ncccc4F)OCOC3C2)ccc1OCCOC(F)(F)F` (some centres unmarked) [Compound 96]: at most 2000 nM.
The same measure for `Cc1cc(C(=O)N2CC[C@]3(c4nccs4)OCOC3C2)ccc1OCC(C)(C)F` (some centres unmarked) [Compound 97]: at most 2000 nM; for `COc1cc(OC(C)C)ccc1C(=O)N1CCC2(c3ccccc3)CC2C1` (centres unmarked) [Compound 98]: at most 2000 nM.
Consider `COc1cc(C(=O)N2CC[C@]3(c4ccc(F)cc4)OCOC3C2)ccc1OCCOC(F)(F)F` (some centres unmarked) [Compound 99], for which the IC50 is at most 2000 nM.
With `Cc1cc(C(=O)N2CC[C@]3(c4ncccc4F)OCOC3C2)ccc1OCC(C)(C)F` (some centres unmarked) [Compound 100], the IC50 is at most 2000 nM.
The same measure for `COc1cc(C(=O)N2CC[C@]3(c4ccccn4)CC3C2)ccc1OCCOC(F)(F)F` (some centres unmarked) [Compound 101]: at most 2000 nM.
